Test system: 521955-158-R2-J5-PDC complex spheroids, viability
Assay: Anticancer human tumor 521955-158-R2-J5-PDC patient-derived pancreatic carcinoma cell line growth inhibition [RAS]
Conditions: for viability, T/C: stronger effect = lower value
From the text: RAS pathway inhibitors in Combinations in Complex Spheroids
A high-throughput screen of multi-cell type tumor spheroids was designed to identify active combinations of RAS pathway inhibitors and targeted small molecules. Complex spheroids include a stromal component modeled by human endothelial cells (HUVEC) and fibroblasts modeled by human mesenchymal stem cells (MSCs). The concentration ranges selected for each drug and investigational agent were based upon clinically achievable concentrations if the clinical Cmax of the agent was known.
Compounds. The drugs and investigational agents: abemaciclib (NSC768073), cobimetinib (NSC768068), divarasib (GDC6063, NSC841802), docetaxel (NSC628503), GDC-1971 (RLY-1971, NSC841576), gemcitabine (NSC613327), inavolisib (NSC800729), ipatasertib (NSC767898), KB-0742 (NSC834161), MRTX-1133 (NSC836407), osimertinib (NSC779217), RMC-4630 (NSC839698), RMC-6236 (NSC851965), RMC-6291 (NSC852671), Ro-3306 (NSC812927), sapanisertib (NSC764658), SN-38 (NSC673596), staurosporine (NSC755774), SY5609 (NSC837396), and tovorafenib (DAY101, NSC766906), were obtained from the National Cancer Institute (NCI) Developmental Therapeutics Program Chemical Repository. The FDA-approved anticancer drug set is available from the NCI Developmental Therapeutics Program. […] The stock solutions were prepared in dimethyl sulfoxide (DMSO, Sigma-Aldrich, St. Louis, MO, cat. D2650) at 800-fold the tested concentration and stored at -70 degrees C prior to their use. All drugs and investigational agents were tested over a range starting from a high concentration at or near the clinical Cmax and decreasing in half-log increments. If the clinical Cmax for an agent had not been determined, the highest concentration tested was 10 microM.
Cell Culture. All cells were maintained in an incubator at 37 degrees C and 5% CO2 with 95% humidity. The PDC lines were cultured according to standard operating procedures established by the NCI PDMR. All PDCs were thawed and cultured in Matrigel-coated flasks prepared with a working solution of 1X Ham's F-12 nutrient mix, without supplementation (Invitrogen, Waltham, MA, cat. 11765054), 100 U/mL penicillin-streptomycin (Invitrogen, cat. 15140122), and 2.5% Matrigel (Corning Inc., Corning, NY, cat. 354248) for the first three passages. The 362531-283-R-J2-PDC and 782815-120-R-J1-PDC lines were cultured in 6C/Colon 1B media, which includes advanced DMEM/F-12 (Thermo Fisher Scientific, cat. 12634028), 10 mM HEPES (Thermo Fisher Scientific, cat. 15630080), 1X GlutaMAX supplement (Thermo Fisher Scientific, cat. 35050061), 0.1 mg/mL primocin (InvivoGen, San Diego, CA, cat. ant-pm-2), 10% defined fetal bovine serum, heat inactivated (HyClone Laboratories Inc., Logan, UT, cat. SH30070.03HI), 50% L-WRN conditioned media (ATCC, cat. CRL-3276), 1.25 mM N-Acetyl-L-cysteine (Sigma-Aldrich, cat. A9165), 10 mM nicotinamide (Sigma-Aldrich, cat. N0636), 1X B-27 supplement (Thermo Fisher Scientific, cat. 17504044), 1X N-2 supplement (Thermo Fisher Scientific, cat. 17502048), 50 ng/mL human EGF (Thermo Fisher Scientific, cat. PHG0311), and 10 microM Y-27632 dihydrochloride (Tocris Bioscience, cat. 1254). The K12877-001-R-J1-PDC line was cultured in 6I media, which includes all 6C/Colon 1B media plus 10 ng/mL human FGF-10 (PeproTech, cat. 100-26), 1 ng/mL human FGF-2 (PeproTech, cat. 100-18B), 1 µM prostaglandin E2 (Tocris Bioscience, cat. 2296), […] hydrocortisone (Sigma-Aldrich, cat. H4001), and […] bovine insulin (Sigma-Aldrich, cat. I6634). The K86415-001-R-J1-PDC line was cultured in 6D media, which includes all 6C/Colon 1B media components minus the L-WRN conditioned media. The 485176-168-R4-J1-PDC was cultured in PANC media, which includes all 6C/Colon 1B media plus 100 ng/mL human FGF-10 (PeproTech, cat. 100-26), 500 nM SB-431542 (Selleckchem, cat. S1067), and 10 nM gastrin (Tocris Bioscience, cat. 3006). […]
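Further: compound exposure lasted seven days before the viability read.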
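Wherever viability, T/C is given: spheroids also contain HUVEC endothelial cells and mesenchymal stem cells as stroma.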

What does the source list for CC(C)n1nc(-c2ccc3oc(N)nc3c2)c2c(N)ncnc21?
viability, T/C (compound 0.000316 µM): 94.1% [middle of 4 runs]; viability, T/C (compound 0.001 µM): 101% [middle of 4 runs]; viability, T/C (compound 0.00316 µM): 96.2% [middle of 4 runs]; viability, T/C (compound 0.01 µM): 65.3% [middle of 4 runs]; viability, T/C (compound 0.0316 µM): 44.3% [middle of 4 runs]; viability, T/C (compound 0.1 µM): 37% [middle of 4 runs]; IC50 (curve of compound): 21.3 nM [middle of 4 runs]

How did the IC50 (curve of first compound, second compound 0.00316 µM) turn out when CC(C)n1nc(-c2ccc3oc(N)nc3c2)c2c(N)ncnc21 + C=CC(=O)N1CCN(c2nc(OCC3CCCN3C)nc3c(F)c(-c4nc(N)cc(C)c4C(F)(F)F)c(Cl)cc23)C(C)C1 was run?
Its IC50 is 25.5 nM.

What about the IC50 (curve of first compound, second compound 0.01 µM) of the same compound?
The IC50 was 31.2 nM.

What about the IC50 (curve of first compound, second compound 0.0316 µM) of the same compound?
Its IC50 is 25.7 nM.

And the IC50 (curve of first compound, second compound 0.1 µM)?
The IC50 was 26.3 nM.

What about the IC50 (curve of first compound, second compound 0.316 µM) of the same compound?
The IC50 was 22.2 nM.

What about the IC50 (curve of first compound, second compound 1 µM) of the same compound?
The IC50 was 27.3 nM.

What about the viability, T/C (second compound 0.00316 µM, first compound 0.000316 µM) of the same compound?
Its viability, T/C is 103%.

And the viability, T/C (second compound 0.00316 µM, first compound 0.001 µM)?
Its viability, T/C is 77.8%.

What about the viability, T/C (second compound 0.00316 µM, first compound 0.00316 µM) of the same compound?
The viability, T/C was 95.7%.

And the viability, T/C (second compound 0.00316 µM, first compound 0.01 µM)?
The viability, T/C was 79.1%.

What about the viability, T/C (second compound 0.00316 µM, first compound 0.0316 µM) of the same compound?
The viability, T/C was 43.5%.

And the viability, T/C (second compound 0.00316 µM, first compound 0.1 µM)?
The viability, T/C was 34.5%.

What about the viability, T/C (second compound 0.01 µM, first compound 0.000316 µM) of the same compound?
The viability, T/C was 93.8%.

What about the viability, T/C (second compound 0.01 µM, first compound 0.001 µM) of the same compound?
Its viability, T/C is 113%.

What about the viability, T/C (second compound 0.01 µM, first compound 0.00316 µM) of the same compound?
Its viability, T/C is 95.9%.

And the viability, T/C (second compound 0.01 µM, first compound 0.01 µM)?
The viability, T/C was 88%.

And the viability, T/C (second compound 0.01 µM, first compound 0.0316 µM)?
The viability, T/C was 49.3%.

And the viability, T/C (second compound 0.01 µM, first compound 0.1 µM)?
Its viability, T/C is 29.5%.

What about the viability, T/C (second compound 0.0316 µM, first compound 0.000316 µM) of the same compound?
Its viability, T/C is 76%.

What about the viability, T/C (second compound 0.0316 µM, first compound 0.001 µM) of the same compound?
The viability, T/C was 134%.

And the viability, T/C (second compound 0.0316 µM, first compound 0.00316 µM)?
Its viability, T/C is 87.1%.

What about the viability, T/C (second compound 0.0316 µM, first compound 0.01 µM) of the same compound?
Its viability, T/C is 93.7%.

What about the viability, T/C (second compound 0.0316 µM, first compound 0.0316 µM) of the same compound?
Its viability, T/C is 40.5%.

What about the viability, T/C (second compound 0.0316 µM, first compound 0.1 µM) of the same compound?
The viability, T/C was 29.7%.

What about the viability, T/C (second compound 0.1 µM, first compound 0.000316 µM) of the same compound?
Its viability, T/C is 141%.

And the viability, T/C (second compound 0.1 µM, first compound 0.001 µM)?
Its viability, T/C is 141%.

What about the viability, T/C (second compound 0.1 µM, first compound 0.00316 µM) of the same compound?
Its viability, T/C is 109%.

What about the viability, T/C (second compound 0.1 µM, first compound 0.01 µM) of the same compound?
The viability, T/C was 79.7%.

What about the viability, T/C (second compound 0.1 µM, first compound 0.0316 µM) of the same compound?
Its viability, T/C is 42.6%.

And the viability, T/C (second compound 0.1 µM, first compound 0.1 µM)?
The viability, T/C was 31.3%.

What about the viability, T/C (second compound 0.316 µM, first compound 0.000316 µM) of the same compound?
The viability, T/C was 141%.

What about the viability, T/C (second compound 0.316 µM, first compound 0.001 µM) of the same compound?
Its viability, T/C is 134%.

And the viability, T/C (second compound 0.316 µM, first compound 0.00316 µM)?
Its viability, T/C is 91.3%.

And the viability, T/C (second compound 0.316 µM, first compound 0.01 µM)?
The viability, T/C was 68.9%.

What about the viability, T/C (second compound 0.316 µM, first compound 0.0316 µM) of the same compound?
The viability, T/C was 42.9%.

And the viability, T/C (second compound 0.316 µM, first compound 0.1 µM)?
The viability, T/C was 33.4%.

What about the viability, T/C (second compound 1 µM, first compound 0.000316 µM) of the same compound?
Its viability, T/C is 149%.

And the viability, T/C (second compound 1 µM, first compound 0.001 µM)?
The viability, T/C was 90.5%.

And the viability, T/C (second compound 1 µM, first compound 0.00316 µM)?
Its viability, T/C is 87.6%.

What about the viability, T/C (second compound 1 µM, first compound 0.01 µM) of the same compound?
Its viability, T/C is 79.2%.

And the viability, T/C (second compound 1 µM, first compound 0.0316 µM)?
Its viability, T/C is 42.4%.

What about the viability, T/C (second compound 1 µM, first compound 0.1 µM) of the same compound?
The viability, T/C was 28.8%.

Source: PubChem BioAssay AID2060900 (Molecular Pharmacology Branch, DTP, NCI, 2025)
